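Protocol summary: plate cells (96-well), add compound at 5 concentrations, incubate 48 h, interpolate endpoints linearly. Here, GI50 denotes the concentration required for 50% inhibition of growth.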 The source made the active and inactive calls. No stated cut-off is given here; in the data, active = GI50 up to about 1.1 µM and inactive = higher.
Experiments:
Test in all cases: inhibition of tumour cell growth, NCI panel, 48 h
[1] = system: COLO 205
[2] = system: HCT-15
[3] = system: SNB-19
[4] = system: SF-295
[5] = system: RXF 393
[6] = system: SK-MEL-5
[7] = system: MOLT-4
[8] = system: OVCAR-4
[9] = system: HOP-92
[10] = system: Malme-3M
[11] = system: SN12C
[12] = system: UO-31
[13] = system: SF-268
[14] = system: M19-MEL
[15] = system: SK-MEL-28
[16] = system: OVCAR-3
[17] = system: NCI-H226

SMILES | GI50 [1] | GI50 [2] [µM] | GI50 [3] | GI50 [4] | GI50 [5] | GI50 [6] | GI50 [7] | GI50 [8] | GI50 [9] | GI50 [10] | GI50 [11] | GI50 [12] | GI50 [13] | GI50 [14] | GI50 [15] | GI50 [16] | GI50 [17]
O=NN(CCCl)C(=O)NC1CCC(CC2CCC(NC(=O)N(CCCl)N=O)CC2)CC1 (stereo unspecified) | > 48.1 µM (inactive) | 39.9 | 12.2 µM (inactive) | 0.986 µM (active) | 1.66 µM (inactive) | 32 µM (inactive) | 1.21 µM (inactive) | 28.8 µM (inactive) | 26.2 µM (inactive) | 32.3 µM (inactive) | 28.4 µM (inactive) | 46.1 µM (inactive) | 0.836 µM (active) | 2.7 µM (inactive) | > 65.8 µM (inactive) | 27.8 µM (inactive) | 79.3 µM (inactive)
O=C1CCCn2c3ccccc3c3ccnc1c32 | 41.8 µM (inactive) | 41.7 | 47.3 µM (inactive) | 38.9 µM (inactive) | 24.8 µM (inactive) | 34 µM (inactive) | 30.8 µM (inactive) | 49 µM (inactive) | > 62.8 µM (inactive) | 35.1 µM (inactive) | 40.8 µM (inactive) | 35 µM (inactive) | 30 µM (inactive) | 41.5 µM (inactive) | 51.6 µM (inactive) | 37.7 µM (inactive) | 19.4 µM (inactive)
Nc1cc2c(cc1[N+](=O)[O-])[nH]c1c(-c3ccccc3)nccc12 | 20.7 µM (inactive) | 12 | 23.8 µM (inactive) | 21.7 µM (inactive) | 19.9 µM (inactive) | 13.5 µM (inactive) | 4.43 µM (inactive) | 12.8 µM (inactive) | 12 µM (inactive) | 17.4 µM (inactive) | 22.3 µM (inactive) | 5.77 µM (inactive) | 25.2 µM (inactive) | 17.7 µM (inactive) | 27.1 µM (inactive) | 19.1 µM (inactive) | 17 µM (inactive)
CCCCOC(=O)NC(=O)c1cn(CCCOC(=O)CCCCCCCCC(=O)OCCCn2cc(C(=O)NC(=O)OCCCC)c(=O)n(C)c2=O)c(=O)n(C)c1=O | > 100 µM (inactive) | > 100 | > 100 µM (inactive) | > 100 µM (inactive) | > 100 µM (inactive) | > 100 µM (inactive) | > 100 µM (inactive) | > 100 µM (inactive) | > 100 µM (inactive) | > 100 µM (inactive) | > 100 µM (inactive) | > 100 µM (inactive) | > 100 µM (inactive) | > 100 µM (inactive) | > 100 µM (inactive) | > 100 µM (inactive) | > 100 µM (inactive)
COc1ccc(/C(=N\NC(=O)NN)C(c2ccc(OC)cc2)C2(O)C(=O)Nc3c(Cl)cc(Cl)cc32)cc1 (stereo unspecified) | > 100 µM (inactive) | – | > 100 µM (inactive) | > 100 µM (inactive) | > 100 µM (inactive) | > 100 µM (inactive) | 5.93 µM (inactive) | > 100 µM (inactive) | > 100 µM (inactive) | > 100 µM (inactive) | > 100 µM (inactive) | > 100 µM (inactive) | > 100 µM (inactive) | > 100 µM (inactive) | > 100 µM (inactive) | > 100 µM (inactive) | > 100 µM (inactive)
CCOC(=O)/C(=C/c1ccccn1)C(=O)c1ccccc1 | 14.2 µM (inactive) | 13.2 | 17.6 µM (inactive) | 13 µM (inactive) | 11.2 µM (inactive) | 14.3 µM (inactive) | 8.34 µM (inactive) | 16.1 µM (inactive) | 7.66 µM (inactive) | 13.5 µM (inactive) | 13.7 µM (inactive) | 16.3 µM (inactive) | 19.1 µM (inactive) | 13.5 µM (inactive) | 11.8 µM (inactive) | 14.1 µM (inactive) | 15.9 µM (inactive)
Cc1cccc2c1C(=O)OC2(c1cccc2ccccc12)c1cccc2ccccc12 | > 100 µM (inactive) | > 100 | 81.1 µM (inactive) | 33.6 µM (inactive) | 27.2 µM (inactive) | > 100 µM (inactive) | > 100 µM (inactive) | 89.9 µM (inactive) | – | > 100 µM (inactive) | > 100 µM (inactive) | 79.3 µM (inactive) | 56 µM (inactive) | > 100 µM (inactive) | > 100 µM (inactive) | > 100 µM (inactive) | > 100 µM (inactive)
CCN(CC)C(=S)SS(C)(=O)=O | 15.4 µM (inactive) | 13.4 | 23.9 µM (inactive) | 18.9 µM (inactive) | 11 µM (inactive) | 25.5 µM (inactive) | 15.8 µM (inactive) | 19.6 µM (inactive) | 30.6 µM (inactive) | 26.7 µM (inactive) | 16 µM (inactive) | 19 µM (inactive) | – | 16.4 µM (inactive) | – | – | 14.8 µM (inactive)
